Laboratory results: PMC4727990 (Bioorganic & medicinal chemistry letters, 2015)
Values belong to the compound of their own block, whether it stands above or below them.

Tests used:
ASCT2 [1] = conditions: cited from earlier work
ASCT2 [2] = conditions: read-out: apparent affinity; inhibitor of ASCT2; cited from earlier work
ASCT2 [3] = target: T1, ASCT2 (Rattus norvegicus, UniProt D3ZJ25); assay: ASCT2-mediated 3H-glutamine uptake in C6 cells; type: cell-based
T1 sequence (D3ZJ25 1-555): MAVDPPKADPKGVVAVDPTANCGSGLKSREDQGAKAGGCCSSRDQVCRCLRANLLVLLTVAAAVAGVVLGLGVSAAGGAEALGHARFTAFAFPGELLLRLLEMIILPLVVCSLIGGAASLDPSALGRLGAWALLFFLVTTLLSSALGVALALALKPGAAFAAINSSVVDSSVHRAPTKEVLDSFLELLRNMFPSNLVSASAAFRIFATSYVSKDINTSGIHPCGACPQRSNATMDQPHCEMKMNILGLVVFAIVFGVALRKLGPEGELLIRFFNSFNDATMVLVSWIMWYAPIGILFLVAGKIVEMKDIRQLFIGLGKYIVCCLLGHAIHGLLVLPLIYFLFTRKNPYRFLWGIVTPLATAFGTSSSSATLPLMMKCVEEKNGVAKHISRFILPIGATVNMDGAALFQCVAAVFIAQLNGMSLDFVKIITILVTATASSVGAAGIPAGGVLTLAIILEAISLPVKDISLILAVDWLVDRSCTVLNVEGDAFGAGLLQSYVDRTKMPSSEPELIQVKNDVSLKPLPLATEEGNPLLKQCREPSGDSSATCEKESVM

Compound: N[C@@H](CCC(=O)Nc1ccc([N+](=O)[O-])cc1)C(=O)O [Compound 1, L-γ-glutamyl-p-nitroanilide]
potency against ASCT2 (ASCT2 [1]): modest potency in the low millimolar range

Compound: N[C@@H](COC(=O)c1ccc(-c2ccccc2)cc1)C(=O)O [Compound 3, O-(4-phenylbenzoyl)-L-serine]
Ki (ASCT2 [2]): 30 µM

IC50 (ASCT2 [3]): 9 µM
Compound: Cc1cccc(COc2ccccc2CN(CC[C@H](N)C(=O)O)Cc2ccccc2OCc2cccc(C)c2)c1 [Compound 17]

Compound: N-(2-(morpholinomethyl)phenyl)-L-glutamine [Compound 2]
improvement of activity against ASCT2 compared to GPNA (ASCT2 [1]): three-fold improved activity
